Values joined by “and” are separate entries in the source; they are usually repeats but may differ in a detail not shown here. Equal values may be shown once.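 Grown in 96-well plates, cells were treated for 48 hours with each compound at five concentrations. Insufficient inhibition: endpoint recorded as highest concentration tested. GI50: concentration for 50% inhibition of growth. TGI is the concentration that stops growth completely.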

Test systems include HOP-62 NSCLC; NCI-H522 lung; OVCAR-4 ovarian; UO-31 renal; MOLT-4 leukemia; SK-OV-3 ovarian; SF-268 CNS; NCI-H460 lung; A549 NSCLC; 786-0 renal.
What all share (assay): NCI tumour cell line growth inhibition, 48 h

Regarding `Nc1ccc(S(=O)(=O)NCc2nccs2)cc1`, the TGI with HOP-62 NSCLC was greater than 100 µM; in the experiment on NCI-H522 lung, 35.6 µM; in the experiment on OVCAR-4 ovarian it was 95.7 µM; in the experiment with UO-31 renal, 55.1 µM; in the experiment with MOLT-4 leukemia it was 69 µM; in the experiment with SK-OV-3 ovarian, greater than 100 µM. Further, the TGI is 46.3 µM in the experiment on SF-268 CNS, greater than 100 µM with NCI-H460 lung, 94.3 µM in the experiment with A549 NSCLC and 77.3 µM with 786-0 renal.

For `CC[C@@]1(O)C(=O)OCc2c1cc1n(c2=O)Cc2cc3cc(N)ccc3nc2-1`, the GI50 was 0.00135 µM in the experiment on HOP-62 NSCLC; 0.0261 µM and < 0.0112 µM in the experiment on NCI-H522 lung; 0.048 µM and 0.169 µM in the experiment on OVCAR-4 ovarian; 0.0117 µM in the experiment on UO-31 renal; 0.00648 µM in the experiment with MOLT-4 leukemia; 0.035 µM in the experiment on SK-OV-3 ovarian. Moreover, the GI50 is 0.00149 µM in the experiment with NCI-H460 lung; 0.0373 µM and 0.0155 µM with A549 NSCLC; 0.0119 µM in the experiment on 786-0 renal. For the same molecule, the TGI in the experiment with HOP-62 NSCLC is 0.0157 µM and < 0.0151 µM; in the experiment on NCI-H522 lung, 0.721 µM and 0.182 µM; with OVCAR-4 ovarian, 0.233 µM; in the experiment on UO-31 renal it was 0.169 µM and 0.0358 µM; with MOLT-4 leukemia, 0.143 µM; in the experiment with SK-OV-3 ovarian it was 2.64 µM and 0.756 µM. Also, the TGI with SF-268 CNS is 1.04 µM and 0.146 µM; with NCI-H460 lung, 0.212 µM; in the experiment with A549 NSCLC it was 2.24 µM and 1.26 µM; with 786-0 renal it was 0.208 µM and 0.027 µM.

With `CN=C1SC(=Nc2ccc(N(C)C)cc2)N1C`, the TGI is greater than 100 µM in the experiment on HOP-62 NSCLC; 59.3 µM in the experiment with NCI-H522 lung; greater than 100 µM with OVCAR-4 ovarian; greater than 100 µM with UO-31 renal; greater than 100 µM in the experiment with MOLT-4 leukemia; 67 µM in the experiment on SK-OV-3 ovarian. Further, the TGI in the experiment on SF-268 CNS, with NCI-H460 lung, in the experiment on A549 NSCLC and in the experiment on 786-0 renal was greater than 100 µM throughout.

Turning to `COc1ccc(Cn2c(Cl)c(/C=C3/C(=O)Nc4ccccc43)c3cc(OC)c(C)cc32)cc1`, the GI50 is 5.67 µM in the experiment on HOP-62 NSCLC; 4.77 µM in the experiment with NCI-H522 lung; 4.01 µM in the experiment with OVCAR-4 ovarian; 5.82 µM in the experiment with UO-31 renal; 5.55 µM in the experiment with MOLT-4 leukemia; 3.56 µM with SK-OV-3 ovarian. In addition, the GI50 with SF-268 CNS was 8.94 µM; with NCI-H460 lung it was 5.03 µM; with A549 NSCLC, 7.86 µM; in the experiment with 786-0 renal it was 3.92 µM. In addition, the TGI in the experiment with HOP-62 NSCLC, in the experiment on NCI-H522 lung, with OVCAR-4 ovarian, in the experiment on UO-31 renal, with MOLT-4 leukemia and in the experiment on SK-OV-3 ovarian was greater than 100 µM throughout. Besides, the TGI in the experiment with SF-268 CNS was greater than 100 µM; in the experiment with NCI-H460 lung, greater than 100 µM; in the experiment with A549 NSCLC it was greater than 100 µM; with 786-0 renal, 31.7 µM.

As for `FCc1ncc(-c2ccc(C(F)(F)F)cc2)c(NC2CCCCCC2)n1`, the GI50 in the experiment with HOP-62 NSCLC, in the experiment on NCI-H522 lung, with OVCAR-4 ovarian, in the experiment with UO-31 renal, in the experiment on MOLT-4 leukemia and in the experiment with SK-OV-3 ovarian was greater than 10 µM throughout. The GI50 with SF-268 CNS, in the experiment with NCI-H460 lung, in the experiment with A549 NSCLC and in the experiment with 786-0 renal was greater than 10 µM in each case. The TGI in the experiment with HOP-62 NSCLC, with NCI-H522 lung, in the experiment on OVCAR-4 ovarian, in the experiment with UO-31 renal, in the experiment on MOLT-4 leukemia and with SK-OV-3 ovarian was greater than 10 µM each time. Further, the TGI with SF-268 CNS, in the experiment with NCI-H460 lung, in the experiment with A549 NSCLC and in the experiment with 786-0 renal was greater than 10 µM each time.

Take `O=C1NC2(CN3CCC2CC3)C(=O)N1CN(Cc1ccccc1)c1ccccc1` (configuration not stated): the TGI in the experiment on HOP-62 NSCLC, with NCI-H522 lung, with OVCAR-4 ovarian, with UO-31 renal, in the experiment on MOLT-4 leukemia and in the experiment on SK-OV-3 ovarian was greater than 100 µM each time. The TGI in the experiment on SF-268 CNS, with NCI-H460 lung, in the experiment with A549 NSCLC and in the experiment with 786-0 renal was greater than 100 µM in each case.

`CC1(C)C2CCC3(C2)CS(=O)(=O)N2OC231` (configuration not stated): the TGI with HOP-62 NSCLC was greater than 100 µM; in the experiment with NCI-H522 lung, 26.9 µM; in the experiment on UO-31 renal, 31.3 µM; in the experiment on SK-OV-3 ovarian it was greater than 100 µM; in the experiment on SF-268 CNS it was 47.2 µM; in the experiment on NCI-H460 lung it was 37.1 µM. Moreover, the TGI in the experiment on A549 NSCLC was greater than 100 µM; in the experiment on 786-0 renal, 31.2 µM.

For `CCN(CC)CCCC(C)Nc1c2ccc(C)cc2nc2ccc(OC)cc12` (configuration not stated), the GI50 in the experiment with HOP-62 NSCLC is 1.37 µM; in the experiment on OVCAR-4 ovarian, 1.13 µM; with UO-31 renal it was 1.05 µM; in the experiment on MOLT-4 leukemia, 0.777 µM; in the experiment on SK-OV-3 ovarian it was 2.42 µM; with SF-268 CNS, 2.53 µM. Moreover, the GI50 in the experiment with NCI-H460 lung is 1.2 µM; in the experiment on A549 NSCLC, 0.6 µM; in the experiment on 786-0 renal it was 2.05 µM. Also, the TGI with HOP-62 NSCLC was 3.49 µM; in the experiment on OVCAR-4 ovarian, 3.02 µM; in the experiment with UO-31 renal, 2.36 µM; in the experiment on MOLT-4 leukemia, 13.6 µM; in the experiment with SK-OV-3 ovarian, 15.7 µM; with SF-268 CNS, 13.5 µM. The TGI amounted to 3.74 µM in the experiment with NCI-H460 lung, 3.25 µM in the experiment with A549 NSCLC and 8.58 µM in the experiment with 786-0 renal.

Regarding `O=C1C2Cc3ccccc3CN2C(=O)N1CCN1CCCC1` (configuration not stated), the TGI with HOP-62 NSCLC, with NCI-H522 lung, in the experiment with OVCAR-4 ovarian, in the experiment with UO-31 renal, with MOLT-4 leukemia and in the experiment on SF-268 CNS was greater than 100 µM in each case. Further, the TGI with NCI-H460 lung, in the experiment with A549 NSCLC and with 786-0 renal was greater than 100 µM each time.

With `CCC(c1cccc(O)c1)C(CC)c1cccc(O)c1` (configuration not stated), the GI50 in the experiment on HOP-62 NSCLC is 4.89 µM; in the experiment with NCI-H522 lung it was 4.9 µM; in the experiment with OVCAR-4 ovarian, 1.21 µM; in the experiment on UO-31 renal, 4.23 µM; in the experiment on SK-OV-3 ovarian it was 2.76 µM; with SF-268 CNS it was 5.18 µM. The GI50 is 2.98 µM in the experiment on NCI-H460 lung, 8.58 µM in the experiment with A549 NSCLC and 5.68 µM in the experiment with 786-0 renal. For the same molecule, the TGI in the experiment with HOP-62 NSCLC worked out at 17.4 µM; in the experiment on NCI-H522 lung it was 19.3 µM; in the experiment with OVCAR-4 ovarian, 14.3 µM; in the experiment with UO-31 renal, 17.8 µM; with SK-OV-3 ovarian, 11.1 µM; in the experiment on SF-268 CNS, 20.3 µM. Also, the TGI worked out at 12.8 µM in the experiment with NCI-H460 lung, 24.2 µM in the experiment on A549 NSCLC and 18.3 µM with 786-0 renal.

(Values after PubChem BioAssay (NCI).)
